According to the supplement of paper PMC10307832:

How the values were obtained:
TGX 221 + Vorinostat = compound: CC1=CN2C(=O)C=C(N=C2C(=C1)C(C)NC3=CC=CC=C3)N4CCOCC4 [TGX 221] + O=C(CCCCCCC(=O)Nc1ccccc1)NO [Vorinostat] (partner 1 µM); assay: relative viability (nuclei count vs DMSO), 5 days (fraction); higher = more cells survive
How it was run: (§1)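 One day after seeding in 1536-well plates, lung cancer cell lines were dosed by pin tool. Dosing was either single-drug or a fixed anchor-drug dose plus five library-drug doses (not always all listed) in √10 steps. After 5 days, nuclei were stained in one fix-and-stain step and counted on 4× images, and relative viability is the nuclei count of treated wells over that of vehicle wells, given as the median of duplicate plates.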

[1] = compound: C1=CC=C(C(=C1)C2=CC=C(C=C2)C3=CSC4=C3C(=C(C(=O)N4)C#N)O)O + O=C(CCCCCCC(=O)Nc1ccccc1)NO [Vorinostat] (partner 1 µM); assay: as above
How it was run: as §1

Cell Line | relative viability (TGX 221 + Vorinostat; first compound 0.08 µM) | relative viability (TGX 221 + Vorinostat; first compound 0.253 µM) | relative viability (TGX 221 + Vorinostat; first compound 0.8 µM) | relative viability (TGX 221 + Vorinostat; first compound 2.53 µM) | relative viability (TGX 221 + Vorinostat; first compound 8 µM) | relative viability ([1]; first compound 0.08 µM) | relative viability ([1]; first compound 0.253 µM) | relative viability ([1]; first compound 0.8 µM) | relative viability ([1]; first compound 2.53 µM) | relative viability ([1]; first compound 8 µM)
PC-3 [JPC-3] | 0.719 | 0.715 | 0.839 | 0.655 | 0.881 | 0.809 | 0.909 | 0.758 | 0.658 | 0.662
201T | 1 | 0.956 | 0.902 | 0.927 | 0.879 | 0.874 | 0.952 | 0.811 | 1 | 0.902
SW 900 |  | 0.473 | 0.403 | 0.37 | 0.505 |  | 0.633 | 0.412 | 0.406 | 0.358
LK-2 | 0.356 | 0.309 | 0.249 | 0.415 | 0.505 | 0.22 | 0.26 | 0.28 | 0.321 | 0.255
NCI-H727 | 1.09 | 1.06 | 1.14 | 1.09 | 1.19 | 1.38 | 1.26 | 1.24 | 1.21 | 1.05
IA-LM |  | 0.981 | 1.01 | 0.827 | 0.941 |  | 1.37 | 0.856 | 1 | 0.376
